Test results: article PMC12865133, “Macrocyclic Molecular Glues for the 14‐3‐3/ChREBP Interaction: Affinity and Cooperativity in an Inverse Relationship” (Angewandte Chemie (International Ed. in English), 2025)

How the values were obtained:
14-3-3γ [1] = target: T1, 14-3-3γ (Homo sapiens, UniProt P61981); assay: Isothermal titration calorimetry, peptide titrated to 14-3-3γ; type: binding; conditions: ITC, 200 μM peptide titrated to 20 μM 14-3-3γ, mean ± SD, n=3; for ΔS: 25 mM HEPES pH 8.0, 100 mM NaCl, 10 mM MgCl2, 500 µM TCEP, 25 °C; for ΔG / ΔH: pH 8.0, 25 °C
T1 sequence (P61981 1-247): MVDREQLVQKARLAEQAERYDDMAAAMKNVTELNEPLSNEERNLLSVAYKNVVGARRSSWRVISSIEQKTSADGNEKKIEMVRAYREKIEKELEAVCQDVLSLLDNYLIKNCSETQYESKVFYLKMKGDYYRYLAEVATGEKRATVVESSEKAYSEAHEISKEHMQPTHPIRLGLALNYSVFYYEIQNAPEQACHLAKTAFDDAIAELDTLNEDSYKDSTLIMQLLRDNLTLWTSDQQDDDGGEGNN
Protocol: Final dialysis fluid from protein expression was frozen as 2 mL aliquots to serve as ITC buffer (25 mM HEPES pH 8.0, 100 mM NaCl, 10 mM MgCl2, 500 µM TCEP). 14-3-3γ and peptide were dissolved and diluted in this buffer to 20 μM and 200 μM, respectively. Samples were degassed for 10 min prior to measurement at 450 mmHg. The reference cell was filled with 300 µL degassed MilliQ and the sample cell was filled with 300 µL of peptide or protein mixture. Syringe was loaded with at least 200 µL protein or peptide sample. Measurements were performed on an Affinity ITC LV (TA instruments), with injection size set to 2 µL, stirring speed of 125 rpm and temperature at 25 ̊C. The baseline was automatically adjusted with NITPIC, analysis of data was done in SEDPHAT, and images were produced with GUSSI software. Data and errors represent mean ± SD, n=3 replicates.

14-3-3γ [2] = target: T1, 14-3-3γ; assay: Surface plasmon resonance, Twinstrep-tagged 14-3-3γ captured on StrepTactinXT chip; conditions: for KD, affinity fit: SPR steady-state 1:1 fit; for kon: pH 7.4, read-out: ka, kinetic fit
Protocol: The SPR experiments were performed at 25 °C using a Biacore X100 (Cytiva) and a 200 nm Strep-Tactin XT derivatized linear polycarboxylate hydrogel chip, medium charge density (XanTec Bioanalytics). All proteins and peptides were dissolved in fresh running buffer prepared with ultrapure water and filtered through a 0.2 μm filter (10 mM HEPES pH 7.4, 200 mM NaCl, 50 μM EDTA, 0.005% P20). First the surface was conditioned with a 1 min injection of 3 M Guanidine HCl. The Biacore X100 was primed with running buffer. […] Flow cell 1 was left blank as a reference surface. […] Between cycles of one multi-cycle measurement, no regeneration step was performed due to the complete dissociation of the analyte. […] The data collection rate of the instrument is 1 datapoint/sec. […] All parameters were fitted using global fitting, including the Rmax, because a single immobilization was used for all analyte concentrations. The RI was set constant at 0 RU. Next to kinetic fitting, the affinity fit was made using a 1:1 binding model by plotting the response (RU) at steady state over the analyte concentration (Fig. S2).

14-3-3/ChREBP complex = target: T2, 14-3-3/ChREBP complex (Homo sapiens, UniProt P31946+Q9NP71); assay: 2D FA titrations fitted to thermodynamic cooperativity model; conditions: for α1 / α / Kd: 2D FA model fit; for α1: dimeric 14-3-3 model; for cooperativity (α) factor: 2D FA, 14-3-3β titrated to FITC-labeled MG with varying ChREBP peptide, KD^II fixed 1.5 µM, mean of n = 2; for Kd: KDI
T2 sequence (P31946 1-246): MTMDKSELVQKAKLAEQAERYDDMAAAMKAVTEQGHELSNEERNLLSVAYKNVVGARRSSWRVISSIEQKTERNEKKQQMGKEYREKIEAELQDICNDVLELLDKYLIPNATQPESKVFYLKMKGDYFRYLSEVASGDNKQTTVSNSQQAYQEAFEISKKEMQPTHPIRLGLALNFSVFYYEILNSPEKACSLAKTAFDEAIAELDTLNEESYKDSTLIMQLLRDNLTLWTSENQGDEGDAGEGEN
T2 sequence (Q9NP71 117-142 partner limits assumed): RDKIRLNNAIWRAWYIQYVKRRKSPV

14-3-3γ [3] = target: T1, 14-3-3γ; assay: Fluorescence Anisotropy protein titration of 14-3-3γ to FITC-labeled macrocycles; type: binding; conditions: FA, 14-3-3γ titrated (2-fold from 250 µM) to FITC-labeled peptide (10 nM in Fig. 2a, 5 nM in method), 10 mM HEPES pH 7.4, 150 mM NaCl, 0.1% Tween20, 0.1% BSA, rt, mean ± SD, n = 3
Protocol: (§1) Wells containing 5 nm FITC-macrocycle were used to set as G-factor. All data were analyzed using Origin2023b and fitted using a four-parameter logistic model. Each measurement was performed in three independent experiments.

[4] = tested on: 14-3-3β/macrocycle complex; assay: FA selectivity assay, acetylated 14-3-3 client peptides titrated to 14-3-3β/macrocycle complex; type: binding, human; conditions: acetylated client peptide titrated from 100 μM to 14-3-3β (at EC50) and FITC-labeled macrocycle (10 nM), n = 3
14-3-3β = target: T3, 14-3-3β (Homo sapiens, UniProt P31946); assay: FA titration of 14-3-3β to FITC-labeled macrocycle (EC50 used for selectivity assay); type: binding; conditions: 14-3-3β concentration equal to/around EC50 for FITC-labeled macrocycle (10 nM)
T3 construct: The full-length human 14-3-3β and γ proteins; made in house; host or cells: Escherichia coli BL21(DE3)
T3 sequence (P31946 1-246): T2 sequence (P31946 1-246)
Protocol: For the 2D titrations, 14-3-3β was titrated in a 2-fold dilution series (starting at 250 µM) to a mix of fluorescein-labeled macrocycle (5 nM) against varying fixed concentrations of ChREBP (2-fold dilution starting from 20 µM (replicate 1) or 10 µM (replicate 2)).
as §1, with “Dilution series were made in a polystyrene (non-binding) low-volume Corning Black Round Bottom 384-well plates (Corning 4514 or 4511). […] Wells” for “Wells”

[5] = SPR, 1:1 model, 25 °C, 10 mM HEPES pH 7.4, 200 mM NaCl, replicate 1
[6] = SPR, 1:1 model, 25 °C, pH 7.4, average ± SD, n=2, SD
[7] = SPR, 1:1 model, 25 °C, pH 7.4, replicate 1
[8] = SPR, 1:1 model, 25 °C, pH 7.4, replicate 2
[9] = replicate 1 (ChREBP from 20 μM)
[10] = replicate 2 (ChREBP from 10 μM)

How did the ΔS (14-3-3γ [1]) turn out when NCCCC[C@@H](C(N)=O)N1CCCc2cn(nn2)-c2ccc(cc2)C[C@H](NC(=O)[C@@H](N)COP(=O)(O)O)C(=O)N[C@@H](CO)CC(=O)NCCC(=O)N[C@@H](Cc2ccc([N+](=O)[O-])cc2)C1=O [Macrocycle 3] was run?
Its ΔS is 5.9 ± 0.89 cal/(mol·K).

What about the ΔG (14-3-3γ [1]) of the same compound?
The ΔG was -9.24 ± 0.028 kcal/mol.

And the ΔH (14-3-3γ [1])?
Its ΔH is -7.5 ± 0.70 kcal/mol.

And the Kd (14-3-3γ [2]; KD, kinetic fit, SPR, 1:1 model, 25 °C, pH 7.4, average ± SD, n=2, SD)?
The Kd was 230 nM.

And the “KD, affinity fit” value (14-3-3γ [2]; 25 °C, pH 7.4, replicate 1)?
The value was 228 nM.

And the “KD, affinity fit” value (14-3-3γ [2]; 25 °C, pH 7.4, replicate 2)?
Its value is 253 nM.

And the “ka, kinetic fit” value (14-3-3γ [2]; [5])?
The value was 629000 M⁻¹ s⁻¹.

What about the “kd, kinetic fit” value (14-3-3γ [2]; [6]) of the same compound?
Its value is 0.13 ± 0.01 s⁻¹.

What about the “KD, kinetic fit” value (14-3-3γ [2]; [7]) of the same compound?
The value was 220 nM.

What about the “kd, kinetic fit” value (14-3-3γ [2]; [7]) of the same compound?
Its value is 0.1384 s⁻¹.

What about the “KD, kinetic fit” value (14-3-3γ [2]; [8]) of the same compound?
The value was 233 nM.

And the “ka, kinetic fit” value (14-3-3γ [2]; [8])?
Its value is 556000 M⁻¹ s⁻¹.

What about the “kd, kinetic fit” value (14-3-3γ [2]; [8]) of the same compound?
The value was 0.1296 s⁻¹.

And the kon (14-3-3γ [2]; SD)?
The kon was 590000 M⁻¹ s⁻¹.

And the α1 (14-3-3/ChREBP complex; replicate 1)?
Its α1 is 11.7.

What about the α1 (14-3-3/ChREBP complex; replicate 2) of the same compound?
The α1 was 11.

What about the α (14-3-3/ChREBP complex; [9]) of the same compound?
Its α is 12.3.

What about the α (14-3-3/ChREBP complex; [10]) of the same compound?
The α was 11.

What does the source list for NCCCC[C@@H](C(=O)NCCC(=O)N[C@@H](CCCCNC(=S)Nc1ccc2c(c1)C(=O)OC21c2ccc(O)cc2Oc2cc(O)ccc21)C(N)=O)N1Cc2cn(nn2)-c2ccc(cc2)C[C@H](NC(=O)[C@@H](N)COP(=O)(O)O)C(=O)N[C@@H](CO)CC(=O)NCCC(=O)N[C@@H](Cc2ccc([N+](=O)[O-])cc2)C1=O [Macrocycle F1]?
α1 (14-3-3/ChREBP complex; replicate 1): 82.8; α1 (14-3-3/ChREBP complex; replicate 2): 85.4; α (14-3-3/ChREBP complex; [9]): 314; α (14-3-3/ChREBP complex; [10]): 363; cooperativity (α) factor (14-3-3/ChREBP complex): 339 ± 35

Which ΔS (14-3-3γ [1]) does the source give for NCCCC[C@@H](C(N)=O)N1CCCCc2cn(nn2)-c2ccc(cc2)C[C@H](NC(=O)[C@@H](N)COP(=O)(O)O)C(=O)N[C@@H](CO)CC(=O)NCCC(=O)N[C@@H](Cc2ccc([N+](=O)[O-])cc2)C1=O [Macrocycle 4] here?
The ΔS was 2.9 ± 0.78 cal/(mol·K).

What about the ΔG (14-3-3γ [1]) of the same compound?
The ΔG was -8.15 ± 0.10 kcal/mol.

What about the ΔH (14-3-3γ [1]) of the same compound?
The ΔH was -7.4 ± 0.44 kcal/mol.

And the “KD, affinity fit” value (14-3-3γ [2]; 25 °C, pH 7.4, replicate 1)?
The value was 1180 nM.

What about the “KD, affinity fit” value (14-3-3γ [2]; 25 °C, pH 7.4, replicate 2) of the same compound?
The value was 1130 nM.

What about the “ka, kinetic fit” value (14-3-3γ [2]; [5]) of the same compound?
Its value is 282000 M⁻¹ s⁻¹.

What about the “kd, kinetic fit” value (14-3-3γ [2]; [6]) of the same compound?
Its value is 0.31 ± 0.01 s⁻¹.

What about the “KD, kinetic fit” value (14-3-3γ [2]; [7]) of the same compound?
The value was 1140 nM.

What about the “kd, kinetic fit” value (14-3-3γ [2]; [7]) of the same compound?
The value was 0.3198 s⁻¹.

And the “KD, kinetic fit” value (14-3-3γ [2]; [8])?
Its value is 1030 nM.

What about the “ka, kinetic fit” value (14-3-3γ [2]; [8]) of the same compound?
Its value is 290000 M⁻¹ s⁻¹.

And the “kd, kinetic fit” value (14-3-3γ [2]; [8])?
The value was 0.2988 s⁻¹.

And the “association rate (k on) fold increase compared to pepD” value (14-3-3γ [2]; SPR, 14-3-3γ)?
The value was 3.5 fold.

What about the kon (14-3-3γ [2]; SD) of the same compound?
Its kon is 290000 M⁻¹ s⁻¹.

And the α1 (14-3-3/ChREBP complex; replicate 1)?
The α1 was 11.8.

What about the α1 (14-3-3/ChREBP complex; replicate 2) of the same compound?
The α1 was 13.5.

And the α (14-3-3/ChREBP complex; [9])?
Its α is 42.5.

And the α (14-3-3/ChREBP complex; [10])?
Its α is 41.3.

What about the Kd (14-3-3/ChREBP complex; [9]) of the same compound?
Its Kd is 5 µM.

And the Kd (14-3-3/ChREBP complex; [10])?
Its Kd is 5 µM.

For NCCCC[C@@H](C(=O)NCCC(=O)N[C@@H](CCCCNC(=S)Nc1ccc2c(c1)C(=O)OC21c2ccc(O)cc2Oc2cc(O)ccc21)C(N)=O)N1CCCc2cn(nn2)-c2ccc(cc2)C[C@H](NC(=O)[C@@H](N)COP(=O)(O)O)C(=O)N[C@@H](CO)CC(=O)NCCC(=O)N[C@@H](Cc2ccc([N+](=O)[O-])cc2)C1=O [Macrocycle F3], which Kd (14-3-3γ [3]) is on record?
The Kd was 230 ± 60 nM.

What about the “cooperativity (α) factor” value (14-3-3/ChREBP complex) of the same compound?
Its value is 12 ± 1.

With NCCCC[C@@H](C(=O)NCCC(=O)N[C@@H](CCCCNC(=S)Nc1ccc2c(c1)C(=O)OC21c2ccc(O)cc2Oc2cc(O)ccc21)C(N)=O)N1CCc2cn(nn2)-c2ccc(cc2)C[C@H](NC(=O)[C@@H](N)COP(=O)(O)O)C(=O)N[C@@H](CO)CC(=O)NCCC(=O)N[C@@H](Cc2ccc([N+](=O)[O-])cc2)C1=O [Macrocycle 2] as the compound, how does the α1 (14-3-3/ChREBP complex; replicate 1) read?
Its α1 is 18.8.

And the α1 (14-3-3/ChREBP complex; replicate 2)?
Its α1 is 8.3.

What about the α (14-3-3/ChREBP complex; [9]) of the same compound?
The α was 46.

What about the α (14-3-3/ChREBP complex; [10]) of the same compound?
The α was 61.

How did the “effect of client peptide on 14-3-3β/macrocycle complex” value [4] turn out when “Ac-RDKIRLNNAIWRAWYIQYVKRRKSPV-NH2 [ChREBP, acetylated ChREBP peptide purchased from GenScript, 14-3-3 client peptide]” was run?
The value was “Stabilization”.

NCCCC[C@@H](C(=O)NCCC(=O)N[C@@H](CCCCNC(=S)Nc1ccc2c(c1)C(=O)OC21c2ccc(O)cc2Oc2cc(O)ccc21)C(N)=O)N1CCCCc2cn(nn2)-c2ccc(cc2)C[C@H](NC(=O)[C@@H](N)COP(=O)(O)O)C(=O)N[C@@H](CO)CC(=O)NCCC(=O)N[C@@H](Cc2ccc([N+](=O)[O-])cc2)C1=O [Macrocycle F4] was tested. Which EC50 (14-3-3β) did it give?
The EC50 was 2 µM.

And the “cooperativity (α) factor” value (14-3-3/ChREBP complex)?
Its value is 42 ± 1.

NCCCC[C@@H](C(=O)NCCC(=O)N[C@@H](CCCCNC(=S)Nc1ccc2c(c1)C(=O)OC21c2ccc(O)cc2Oc2cc(O)ccc21)C(N)=O)N1CCc2cn(nn2)-c2ccc(cc2)C[C@H](NC(=O)[C@@H](N)COP(=O)(O)O)C(=O)N[C@@H](CO)CC(=O)NCCC(=O)N[C@@H](Cc2ccc([N+](=O)[O-])cc2)C1=O [Macrocycle F2] was tested. Which EC50 (14-3-3β) did it give?
Its EC50 is 7 µM.
